{
  "source": "patent US20180258404A1",
  "about": "“METHODS OF GENERATING NEPHRONS FROM HUMAN PLURIPOTENT STEM CELLS” (THE BRIGHAM AND WOMEN'S HOSPITAL, INC., priority 2015, published 2018)",
  "key": {"[1]": {"tested_on": "hPSC-derived renal vesicles", "assay": "Kidney development analysis (Notch inhibition) in kidney organoids", "type": "cell-based, human", "conditions": "DAPT 10 μM from day 14 to 21, 2D and 3D culture", "experimental": "FIG. 6. Modeling kidney development and injury in kidney organoids. (a) Schematic for kidney development analysis and nephrotoxicity assay. (b) Representative images of immunohistochemistry in structures derived from hESCs treated with DAPT 10 μM from day 14 to 21. n=4. Notch inhibition suppressed proximal tubule formation. Scale bars: 50 μm. […] Scale bars: 50 μm. […] (d) A low magnification image of gentamicin-treated organoids. Scale bar: 100 μm. CDH1: Cadherin-1 (E-cadherin). PODXL: Podocalyxin-like (Podocalyxin). LTL: lotus tetragonolobus lectin. KIM-1: kidney injury molecule-1. (e) Real-time quantitative PCR of KIM-1 in kidney organoids treated with gentamicin at indicated doses. Data is expressed as mean+/−SEM (n=10). […] Scale bars: 50 μm.\nFIG. 12. Kidney development analysis. (a) DAPT was used to suppress Notch signaling from day 14 to 21. (b) CDH1, PODXL and LTL expression on day 21 in cells derived from hESCs in 2D culture. Scale bars: 50 (c) Percentage of LTL+ nephron structures in control and DAPT-treated on day 21. The nephron number was counted as CDH1+ tubules from 10 fields (×20 magnification) of each sample (n=2). CDH1: Cadherin-1 (E-cadherin). PODXL: Podocalyxin-like (Podocalyxin). […]"}, "NPCs in 3D culture": {"tested_on": "NPCs in 3D culture", "assay": "Growth factor and small molecule screening in 3D culture (LTL+ tubules)", "type": "cell-based, human", "conditions": "added in 3D culture from day 10", "experimental": "FIG. 10. Spontaneous differentiation of SIX2+ cells into nephrons and growth factor screening in 3D culture. (a) Staining with PAX8 and LHX1 in hESCs on day 10 of the differentiation. hESCs were differentiated with CHIR 8 µM for 4 days, activn 10 ng/ml for 3 days, and FGF9 10 ng/ml for 3 days. […] Scale bar: 50 μm. (b) Brighfield imaging for hESCs on day 10 and 21 of the differentiation. FGF9 was withdrawn on day 10, and cells were cultured in the basic medium by day 21. Scale bars: 50 μm. (c) Brightfield and immunocytochemistry for LTL and NPHS1 in hESCs on day 28 of the differentiation. Scale bar: 50 μm. (d) The protocol for growth factor screening. Cells were replated to 3D culture on day 10, and the listed growth factors and small molecules were tested. (e) The number of LTL+ tubules in the organoids. […] (f) Brightfield imaging of 3D co-culture with an ureteric bud cell sphere. Scale bar: 100 μm. (g) Whole-mountstaining for LTL in the organoids on day 16. Scale bar: 100 μm. (h) Immunohistochemistry of the organoids on day 16. Scale bars: 50 μm. LTL: lotus tetragonolobus lectin. NPHS1: Nephrin.\nTo test whether the formation of epithelial structures could be facilitated by 3D culture conditions, on day 10, at the time of FGF9 withdrawal, the Inventors replated NPCs in ultra-low-attachment, round-bottom 96-well plates and cultured them for 1 week. NPCs formed 3D spherical aggregates, one per 96-well, in suspension culture."}, "[2]": {"tested_on": "human embryonic stem cells (hESCs; H9)", "assay": "Induction of late primitive streak from hESCs with CHIR", "type": "cell-based", "conditions": "CHIR 8 μM over 4 days", "experimental": "hPSCs grown on Geltrex were washed once with PBS (Life Technologies, #10010-049) and dissociated into single cells with Accutase ([…] Technologies, #07920). Cells were then plated at a density of 2-2.4×10^4 (H9) or 1-1.4×10^4 (HDF, 2C) cells/cm^2 onto 24-well tissue culture plates (TPP, #92024) coated with 1% Geltrex in ReproFF2 supplemented with the ROCK inhibitor Y27632 (10 μM) (TOCRIS, #1254) and FGF2 (10 ng/ml). After 72 hours, cells (50% confluent) were briefly washed in PBS and then cultured in basic differentiation medium consisting of Advanced RPMI 1640 (Life Technologies, #12633-020) and 1X L-GlutaMAX (Life Technologies, #35050-061) supplemented with CHIR99021 (8-10 μM) (TOCRIS, #4423) for 4 days to induce late primitive streak cells Noggin (5 ng/ml) was also used for hiPSC differentiation in addition to CHIR (10 μM). To induce posterior intermediate mesoderm, cells were then cultured in Advanced RPMI+1X L-GlutaMAX+activin (10 ng/mL) (R&D, #338-AC-050) for 3 days. For induction of nephron progenitor cells, the media was then changed to Advanced RPMI+1X L-GlutaMAX+FGF9 (10 ng/ml) (R&D, #273-F9-025/CF) for 7 days. CHIR (3 μM) was added to the media from day 9 to 11 of differentiation to induce renal vesicles. On day 14, cells were switched to the basic differentiation medium and cultured for an additional 7 to 14 days (total of 21 to 28 days). […]"}, "NPCs": {"tested_on": "NPCs", "assay": "Induction of pre-tubular aggregates and renal vesicles from nephron progenitor cells", "type": "cell-based, human", "experimental": "hPSCs grown on Geltrex were washed once with PBS (Life Technologies, #10010-049) and dissociated into single cells with Accutase ([…] Technologies, #07920). Cells were then plated at a density of 2-2.4×10^4 (H9) or 1-1.4×10^4 (HDF, 2C) cells/cm^2 onto 24-well tissue culture plates (TPP, #92024) coated with 1% Geltrex in ReproFF2 supplemented with the ROCK inhibitor Y27632 (10 μM) (TOCRIS, #1254) and FGF2 (10 ng/ml). After 72 hours, cells (50% confluent) were briefly washed in PBS and then cultured in basic differentiation medium consisting of Advanced RPMI 1640 (Life Technologies, #12633-020) and 1X L-GlutaMAX (Life Technologies, #35050-061) supplemented with CHIR99021 (8-10 μM) (TOCRIS, #4423) for 4 days to induce late primitive streak cells Noggin (5 ng/ml) was also used for hiPSC differentiation in addition to CHIR (10 μM). To induce posterior intermediate mesoderm, cells were then cultured in Advanced RPMI+1X L-GlutaMAX+activin (10 ng/mL) (R&D, #338-AC-050) for 3 days. For induction of nephron progenitor cells, the media was then changed to Advanced RPMI+1X L-GlutaMAX+FGF9 (10 ng/ml) (R&D, #273-F9-025/CF) for 7 days. CHIR (3 μM) was added to the media from day 9 to 11 of differentiation to induce renal vesicles. On day 14, cells were switched to the basic differentiation medium and cultured for an additional 7 to 14 days (total of 21 to 28 days). The medium was replaced every 2 or 3 days. A variety of growth factors and small molecules were tested for differentiation.\nhPSCs on day 9 of differentiation, which represents metanephric mesenchyme cells, were dissociated with Accutase and resuspended in the basic differentiation medium supplemented with CHIR (3 μM) and FGF9 (10 ng/mL), and placed in 96-well, round bottom, ultra-low attachment plates (Corning, #7007) at 1×10^5 cells per well. The plates were centrifuged at 1500 rpm for 15 seconds, and the cells then cultured at 37° C., 5% CO2 for 2 days. The medium was then changed to the basic differentiation medium supplemented with FGF9 10 ng/mL and cultured for 3 more days. […]"}, "ARPKD-iPS organoids": {"tested_on": "ARPKD-iPS organoids", "assay": "ARPKD organoid cyst formation in 3D culture", "type": "cell-based, human", "conditions": "forskolin treatment, 96-well plates, 24 in 24 organoids", "excerpt": "FIG. 26. Autosomal recessive polycystic kidney disease (ARPKD), organoid in 3D culture. This was done in 96-well plates. Cyst formation was 100% (24 in 24 organoids) in ARPKD-iPS with forskolin treatment. PKHD1 mutants were generated with CRISPR. The cystic phenotype appear from very early stage (day 22˜), meaning high-scale drug screening can be done, since media change will be much less frequent."}, "[3]": {"tested_on": "3D hESC-derived kidney organoids", "assay": "Nephrotoxicity assay in 3D kidney organoids", "type": "cell-based, human", "protocol": "Organoids were then fixed with 4% paraformaldehyde (Electron Microscopy Sciences, #RT15710) for 20 minutes for both whole-mount and frozen section immunohistochemistry.\n3D kidney organoids were fixed with 4% paraformaldehyde in PBS for 20 minutes at RT in a 96-well plate, then washed three times in PBS. The organoids were then incubated in blocking buffer (0.3% Triton X-100 and 5% normal donkey serum) for 1 hour at RT, then washed three times in PBS. The organoids were incubated with primary antibodies in antibody dilution buffer (0.3% Triton X-100 and 1% BSA in PBS) overnight at 4° C. The organoids were then washed with PBS three times for 1 hour each, with the third washing performed overnight at 4° C. For immunostaining with biotinylated LTL (Vector Labs, #B-1325), a Streptavidin/Biotin Blocking Kit (Vector Labs, #SP-2002) was used according to the manufacturer's protocol. The organoids were incubated with secondary antibodies in antibody dilution buffer for 1 hour at RT, then washed with PBS three times for 30 minutes each. Nuclei were counterstained with DAPI for more than 30 minutes. […]\nTotal RNA was purified from cells using the RNAeasy MiniKit (Qiagen). […] Quantitative RT-PCR was performed using the iQ5 Multicolor Real-Time PCR Detection System (Bio-Rad). […] Values were calculated by the delta delta CT method. […]"}},
  "data": [
    {"compound": "COc1cccc2c1C(=O)c1c(O)c3c(c(O)c1C2=O)C[C@@](O)(C(=O)CO)C[C@@H]3O[C@H]1C[C@H](N)[C@H](O)[C@H](C)O1", "note": "[adriamycin]", "values": [
      {"measurement": "structures of podocytes", "setting": "podocytes", "value": "the structures of podocytes were disrupted"}
    ]},
    {"compound": "C[C@H](NC(=O)Cc1cc(F)cc(F)c1)C(=O)N[C@H](C(=O)OC(C)(C)C)c1ccccc1", "note": "[DAPT]", "values": [
      {"measurement": "proximal tubule formation", "setting": "[1]", "value": "marked suppression of proximal tubule formation"}
    ]},
    {"compound": "COc1ccc(C[C@H](N)C(=O)N[C@H]2[C@@H](O)[C@H](n3cnc4c(N(C)C)ncnc43)O[C@@H]2CO)cc1", "note": "[puromycin]", "values": [
      {"measurement": "structures of podocytes", "setting": "podocytes", "value": "the structures of podocytes were disrupted"}
    ]},
    {"compound": "Cc1c[nH]c(-c2cnc(NCCNc3ccc(C#N)cn3)nc2-c2ccc(Cl)cc2Cl)n1", "note": "[CHIR, CHIR99021]", "values": [
      {"measurement": "number of LTL+ tubules in the organoids", "setting": "NPCs in 3D culture", "value": "did not significantly increase the number of LTL+ tubules"},
      {"measurement": "induction of T+TBX6+ primitive streak cells", "setting": "[2]", "value": "robustly induced and maintained a population of T+TBX6+ primitive streak cells"},
      {"measurement": "size of the organoids", "setting": "NPCs; 3D culture from day 9, studied on day 14, versus basic medium (ARPMI)", "value": "increased the size of the organoids"},
      {"measurement": "number of cells that downregulated SIX2 and co-expressed PAX8 and LHX1", "setting": "NPCs; CHIR 3 μM for 2 days from day 9 with FGF9 days 7-14, 2D culture", "value": "markedly increased"},
      {"measurement": "PAX8+LHX1+ differentiated cells by flow cytometry", "setting": "NPCs; CHIR 3 μM for 2 days from day 9 with FGF9 days 7-14, 2D culture, day 14", "value": "~75.9", "unit": "%"}
    ]},
    {"compound": "C=C[C@@]1(C)CC(=O)[C@]2(O)[C@@]3(C)[C@@H](O)CCC(C)(C)[C@@H]3[C@H](O)[C@H](OC(C)=O)[C@@]2(C)O1", "note": "[forskolin]", "values": [
      {"measurement": "cyst formation", "setting": "ARPKD-iPS organoids", "value": 100, "unit": "%"}
    ]},
    {"compound": "gentamicin", "values": [
      {"measurement": "KIM-1 expression by immunostaining (whole mount and frozen sections)", "setting": "[3]; gentamicin 5 mg/mL for 48 hours after day 21", "value": "clear KIM-1 expression at the luminal surface of LTL+tubules but not in E-cadherin+ tubules"},
      {"measurement": "KIM-1 by real-time PCR", "setting": "[3]; gentamicin 5×10^−4, 5×10^−2, or 5 mg/mL for 48 hours", "value": "KIM-1 upregulation by gentamicin in a dose-dependent manner"}
    ]}
  ]
}
